From US20250025438A1, “Derivative of aspartic acid and use thereof in treatment of metabolic diseases such as hepatic fibrosis and non-alcoholic hepatitis” (SHENZHEN JINGTAI TECHNOLOGY CO., LTD., priority 2021, published 2025) come the findings set out here.

Structures can show the parent of a compound that is named as a salt.

The term inhibition denotes the percentage by which the read-out fell short of the control.

Assay type in all cases: cell-based
For one experiment, the system named is TNF-α. As to the kind of experiment: In vitro efficacy in semi-activated LX2 cells, qPCR: TNF-α. Particulars: Homo sapiens, LX-2, 48 hours, Q-PCR, read-out: TNF-α mRNA inhibition rate.
In experiment [1] the test system is liver fibrosis-related genes. As to the kind of experiment: Semi-activated LX2 cells, qPCR: liver fibrosis-related genes overall. Particulars: 48 hours, Q-PCR, Table 2. On the procedure: Test compounds were added to the LX-2 cells respectively, and total RNA in the cells was extracted 48 hours later. This experiment was performed strictly in accordance with the instructions of the Total RNA Kit. The steps were as follows (note: this experiment was performed on ice throughout the entire process, and special RNase-free tips were used throughout the entire process): • 1) The 12-well cell culture plate was taken out from the incubator, the cell culture medium was discarded, the cells were washed twice with 1 mL of 1×PBS, and a negative pressure suction device was used to fully remove PBS; • 2) 350 μL of TRK Lysis Buffer mixture/well was prepared as needed (mixture preparation method: 1 mL of TRKLysis Buffer+20 μL of β-mercaptoethanol), vortexed and mixed well. 350 μL was added to each well of the 12-well cell culture plate, and allowed to stand at room temperature for 5 minutes to fully lyse the cells; • 3) 70% ethanol/well was prepared as needed, vortexed and mixed well. 350 μL was added to each well of the 12-well cell culture plate, mixed well by shaking, and transferred to the spin column (spin column+collection tube were assembled); • 4) Centrifugation was performed at 4° C., 12000 g for 60 sec. The waste liquid was discarded after centrifugation, while the spin column was kept; • 5) 500 μL of RNA Wash Buffer I was added, centrifuged at 4° C., 12000 g for 60 sec, the waste liquid was discarded after centrifugation, and the collection column was kept; • 6) 500 μL of RNA Wash Buffer II (confirmed that ethanol had been added) was added, centrifuged at 4° C., 12000 g for 60 sec, the waste liquid was discarded after centrifugation, and the collection column was kept; • 7) step 6) was repeated once again, centrifugation was performed at 4° C., 12000 g for 90 sec, the waste liquid was discarded after centrifugation, and the collection column was kept; • 8) Centrifugation was performed at 4° C., 12000 g for 120 sec to ensure that the spin column was fully dried; • 9) The dried spin column was inserted into a new 1.5 mL EP tube, and 30 μL of DEPC water was added to the membrane in the center of the spin column. It should be careful not to touch the EP tube cover in this step. It was allowed to stand at room temperature for 5 minutes to ensure that the RNA was fully dissolved in DEPC water. Centrifugation was performed at 4° C., 12000 g for 60 sec, and the EP tube was kept; • 10) NanoDrop ultra-micro-volume spectrophotometer was used to detect RNA concentration;
5.3 Q-PCR detection of target gene expression: According to the instructions of Power SYBR® Green PCR Master Mix, the specific operations were as follows:
LX2 cells were passaged and plated normally. After adherent growth for 12 hours, 50 µM of the test compound was added. After 48 hours, the cells were collected, total RNA was extracted, and Q-PCR was used to detect the changes in the mRNA expression levels of liver fibrosis-related genes (ACTA2 encoding α-SMA, COL1A1 and COLIA2 encoding collagen I, COL3A1 encoding collagen III, SMAD3 encoding Smad3) and inflammation-related genes (IL1β encoding IL-1β, TNFα encoding TNFα) (for specific methods, see 5. Q-PCR detection of target gene expression as described above). α-SMA was a marker of hepatic stellate cell activation, and collagen I and collagen III were the main components of extracellular matrix deposition.
On the technique in general: Real-time PCR tracks product formation cycle by cycle.

For the next experiment, the system named is COL1A1. Put plainly: In vitro efficacy in semi-activated LX2 cells, qPCR: COL1A1. The settings on record: Homo sapiens, LX-2, 50 µM, 48 hours, Q-PCR, read-out: COL1A1 mRNA inhibition rate.
For the next experiment, the system named is collagen I. Put plainly: Semi-activated LX2 cells, Western blot: collagen I protein. The settings on record: 50-400 μM, 48 hours, FIG. 1, vs 50 μM aspartic acid. (In general: In western blotting, separated proteins are transferred to a membrane and probed.)

In the case of `COC(=O)[C@@H](N)CC(=O)O` [Compound 4], the inhibition at 50 µM in the experiment with TNF-α and with COL1A1 was 25 to 50% in each case. Also, the “inhibition of the mRNA expression levels of liver fibrosis-related genes (overall)” value (“inhibition … (overall)” below) in experiment [1] is on record as “stronger effects”.

With `COC(=O)C[C@H](N)C(=O)O` [Compound 6], the inhibition at 50 µM with TNF-α was in the range of 10 to 25%; in the experiment on COL1A1, 25 to 50%. Further, the “inhibitory effect on collagen I protein expression as compared to ASP” value (“inhibitory effect … compared to ASP” for short) with collagen I is “stronger inhibitory effects”. For the same compound, in experiment [1], the “inhibition … (overall)” value was “stronger effects”.

Consider `N[C@@H](CCC(=O)O)C(=O)O` [Compound 47], for which the inhibition at 50 µM in the experiment with TNF-α fell in the range of 10 to 25%; in the experiment on COL1A1 it was 25 to 50%. The “inhibitory effect … compared to ASP” value in the experiment on collagen I is on record as “stronger inhibitory effects”. Besides, in experiment [1], the “inhibition … (overall)” value is “stronger effects”.

For the compound `COC(=O)C[C@H](N)C(=O)OCOC(=O)[C@@H](N)CC(=O)OC` [Compound 54, 4-dimethyl O′1,01-methylene (2S,2'S)-bis (2-aminosuccinate) hydrochloride], the inhibition at 50 µM is 1 to 10% with TNF-α and 25 to 50% with COL1A1. In the experiment on collagen I, the “inhibitory effect … compared to ASP” value is “stronger inhibitory effects”. In addition, the “inhibition … (overall)” value in experiment [1] is reported as “stronger effects”.
